The subject of test [1] is JAK2 (BaF3 V617F cells, UKE-1). Description: Proliferation Assay (Cell Titer-Glo, 72 hours). The note with it: proliferation 72 hours, BaF3 V617F or UKE-1 cells, cell line not given, read-out: Example 7 (IC50). The class given is cell-based. As for the experimental part:
• Dimethyl Sulfoxide (DMSO) (Sigma-Aldrich, Cat No. D2650) (Control) • Iscove's DMEM, ATCC Catalog #30-2005 • 1 M HEPES, Cellgro Catalog #25-060-Cl (100 mL) • 100 mM Sodium Pyruvate, Cellgro Catalog #25-000-Cl (100 mL) • Penicillin/Streptomycin, 10000 U/mL each, Cellgro Catalog #30-002-Cl (100 mL) • RPMI 1640 (Cellgro, Cat No. 10-040-CM) • Fetal Bovine Serum (JRH, Cat No. 12106-500M) • Donor Equine Serum, Hyclone Catalog #SH30074.02 (100 mL) • 50 μM hydrocortisone solution, Sigma Catalog #H6909-10 ml (10 mL) Culture Conditions
BaF3 V617F cells are maintained and plated in RPMI with 10% FBS. Plating density for these cells is 1×10^5 cells/mL.
UKE-1 are maintained and plated in Iscove's DMEM containing 10% FBS, 10% equine serum, 1% penicillin/streptomycin and 1 uM hydrocortisone. Plating density for these cells is 0.4×10^6 cells/mL
The cells were resuspended in a corresponding medium at a required cell density (see above). 100 μ of cell suspension was added to each well of a flat bottom 96 well white plate. The compound was serially diluted in DMSO from 5 mM in 3-fold dilutions, and then diluted 1:250 in the RPMI 1640 medium containing 5% FBS and pen/strep. 100 μL of resulting 2× compound solution was added per well in duplicate and the cells were allowed to proliferate for 72 hours at 37° C.
Proliferation was measured using Cell Titer-Glo. The substrate was thawed and allowed to come to room temperature. After removal of top 100 μL of medium from each well, 100 μL of the premixed Cell Titer-Glo reagent was added to each well. The plates were mixed on an orbital shaker for three minutes to induce lysis and incubated at ambient temperature for an additional five minutes to allow the signal to equilibrate. The Luminescence was read on the Wallac Plate Reader.
The results of the ability of the compounds of the invention to inhibit JAK2 activity, when tested in the above assay, are shown in the following Table IX wherein the level of activity (i.e. the IC50) for each compound is indicated in Table IX. Thae compound numbers in Table IX Refers to the compound disclosed herein as being preparded hy the methods disclosed herein: […]
A general note: ATP-based viability assays read luminescence as a measure of living cells.

Test [2] deals with Ramos B-Cell Line Stimulated with IL-4 (JAK-1 and JAK-3 / Stat-6, CD23). The experiment in a line: Assay for Ramos B-Cell Line Stimulated with IL-4 (CD23 upregulation, FACS). It is filed as cell-based. As to conditions: human Ramos B cells, compound 1 hour, IL-4 50 units/mL for 20-24 hours, anti-CD23-PE FACS, read-out: Example 2 (IC50). Put shortly: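 Human Ramos B cells (5×10^4 per point, RPMI with 5% serum) pre-incubated 1 hour at 37° C with compound or DMSO, then stimulated with IL-4 at 50 units/mL final for 20-24 hours. CD23 upregulation measured by flow cytometry.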

Read-outs that look alike come from different tables or passages of the source.

A word on the IC50: it is the concentration at which inhibition is half-maximal. In the case of `CN1CCN(C(=O)c2ccc(Nc3ncc(F)c(Nc4ccc(OCC#N)cc4)n3)cc2)CC1` [Compound I-31, N4-(4-Cyanomethoxyphenyl)-5-fluoro-N2-[4-((4-methylpiperazin-1-yl)carbonyl)phenyl]-2,4-pyrimidinediamine], the IC50 came out at 1.26 µM in test [1] and 0.0623 µM in test [2] (Homo sapiens, Ramos). Take `Cc1cnc(Nc2cccc(C#N)c2)nc1Nc1ccc2c(c1)N(C)C(=O)CS2` [II-7, N2-(3-Cyanophenyl)-5-methyl-N4-(4-methyl-3-oxo-2H-benzo[1,4]thiazin-6-yl)-2,4-pyrimidinediamine]: the half-inhibitory concentration (IC50) in test [1] was determined as 1.43 µM; in test [2] (Homo sapiens, Ramos), 0.116 µM.

Consider `CN1C(=O)C(C)(C)Oc2ccc(Nc3nc(Nc4ccc5c(c4)C(=O)NCC5)ncc3F)nc21` [IV-2, 5-Fluoro-N2-(1-oxo-1,2,3,4-tetrahydroisoquinolin-7-yl)-N4-[3-oxo-2,2,4-trimethyl-5-pyrido[1,4]oxazin-6-yl]-2,4-pyrimidinediamine], for which the IC50 was determined as 4.12 µM in test [1] and 0.748 µM in test [2] (Homo sapiens, Ramos). With `Cc1cnc(Nc2cccc(C(N)=O)c2)nc1Nc1ccc2c(c1)N(C)C(=O)C(C)(C)O2` [II-39, N2-(3-Aminocarbonylphenyl)-5-methyl N4-(2,2,4-trimethyl-3-oxo-benz[1,4]oxazin-6-yl)-2,4-pyrimidinediamine], the IC50 in test [1] turned out to be 0.55 µM; in test [2] (Homo sapiens, Ramos), 0.162 µM.

In the case of “5-Methyl-N2-(I-oxo-1,2,3,4-tetrahydroisoquinolin-7-yl)-N4-[3-oxo-2,2,4-trimethyl-5-pyrido[1,4]oxazin-6-yl]-2,4-pyrimidinediamine [IV-3]”, the 50% inhibitory concentration (IC50) in test [1] was determined as 2.15 µM; in test [2] it was 0.231 µM. In the case of `CNC(=O)COc1cc(Nc2ncc(F)c(Nc3ccc4c(n3)NCC(C)(C)O4)n2)ccc1OC` [II-32, N4-(3,4-Dihydro-2,2-dimethyl-2H-5-pyrido[1,4]oxazin-6-yl)-5-fluoro-N2-[4-methoxy-3-(N-methylaminocarbonylmethoxy)phenyl]-2,4-pyrimidinediamine], the IC50 stood at 1.09 µM in test [1] and 0.0896 µM in test [2]. As for `CNC(=O)COc1cc(Nc2ncc(F)c(Nc3ccc4c(n3)NCC(C)(C)O4)n2)cc(OC)c1OC` [II-33, N4-(3,4-Dihydro-2,2-dimethyl-4H-5-pyrido[1,4]oxazin-6-yl)-N2-[3,4-dimethoxy-5-(N-methylaminocarbonylmethoxy)phenyl]-5-fluoro-2,4-pyrimidinediamine], the IC50 is 0.489 µM in test [1] and 0.0752 µM in test [2]. Take `CNC(=O)COc1cccc(Nc2ncc(C)c(Nc3ccc4c(c3)NC(=O)C(F)(F)O4)n2)c1` [II-49, N4-(2,2-Difluoro-3-oxo[4H]benzo[1,4]oxazin-6-yl)-5-methyl-N2-[3-(N-Methylaminocarbonylmethyleneoxy)phenyl]-2,4-pyrimidinediamine]: the IC50 in test [1] is 16.4 µM; in test [2], 0.098 µM.

As to `Cc1cnc(Nc2cccc(C(N)=O)c2)nc1Nc1ccc2c(c1)CCC(=O)N2C` [II-28, N2-(3-Aminocarbonylphenyl)-5-methyl-N4-(1-methyl-2-oxo-1,2,3,4-tetrahydroquinolin-6-yl)-2,4-pyrimidinediamine], the IC50 in test [2] (Homo sapiens, Ramos) amounted to 0.899 µM. For the compound `Cc1cnc(Nc2cccc(C(N)=O)c2)nc1Nc1ccc2c(c1)NC(=O)CO2` [II-38, N2-(3-Aminocarbonylphenyl)-N4-(3,4-dihydro-2H-3-oxo-4H-benz[1,4]oxazin-6-yl)-5-methyl-2,4-pyrimidinediamine], the IC50 in test [2] came to 0.177 µM. Take `CN1CCN(C(=O)c2ccc(Nc3ncc(F)c(Nc4cccc(OCC(N)=O)c4)n3)cc2)CC1` [Compound I-48, N4-(3-Aminocarbonylmethoxyphenyl)-5-fluoro-N2-[4-((4-methylpiperazin-1-yl)carbonyl)phenyl]-2,4-pyrimidinediamine]: the IC50 in test [2] (Homo sapiens, Ramos) is 0.913 µM. As to `N#CCOc1ccc(Nc2nc(Nc3ccc(CC#N)cc3)ncc2F)cc1F` [Compound I-103, N4-(4-Cyanomethoxy-3-fluorophenyl)-N2-(4-cyanomethylphenyl)-5-fluoro-2,4-pyrimidinediamine], in test [2] (Homo sapiens, Ramos), the half-maximal inhibitory concentration (IC50) worked out at 0.0827 µM. As for `COc1ccc(Nc2nc(Nc3ccc(C(=O)Nc4ccnn4C)cc3)ncc2F)cc1Cl` [Compound I-4, N4-(3-Chloro-4-methoxyphenyl)-5-fluoro-N2-[4-((1-methyl-1H-pyrazol-5-yl)aminocarbonyl)phenyl]-2,4-pyrimidinediamine], in test [2] (Homo sapiens, Ramos), the 50% inhibitory concentration (IC50) was found to be 0.0575 µM. Consider `C#CCOc1ccc(Nc2nc(Nc3cccc(C(N)=O)c3)ncc2F)cc1` [Compound I-6, N2-(3-Aminocarbonylphenyl)-5-fluoro-N4-[4-(2-propynyloxy)phenyl]-2,4-pyrimidinediamine], for which the IC50 in test [2] (Homo sapiens, Ramos) was 2.77 µM. In the case of `Cc1cc(Nc2nc(Nc3ccc(C(N)=O)cc3)ncc2F)cc(C)c1OC(C)C#N` (stereo not shown) [Compound I-95, N2-(4-Aminocarbonylphenyl)-N4-[4-(1-cyanoethoxy)-3,5-dimethylphenyl]-5-fluoro-2,4-pyrimidinediamine], in test [2] (Homo sapiens, Ramos), the IC50 turned out to be 0.103 µM. Still for that read-out and setting: the same measure for `CC1(C)Oc2ccc(Nc3nc(Nc4ccc5c(c4)C(=O)NCC5)ncc3F)nc2NC1=O` [IV-1, N4-[2,2-Dimethyl-3-oxo-4H-5-pyrido[1,4]oxazin-6-yl]-5-fluoro-N2-(I-oxo-1,2,3,4-tetrahydroisoquinolin-7-yl)-2,4-pyrimidinediamine]: 0.287 µM. `CC(C)(C#N)Oc1ccc(Nc2nc(Nc3ccc(CC#N)cc3)ncc2F)cc1` [Compound I-83, N4-[4-(1-Cyano-1-methylethoxy)phenyl]-N2-(4-cyanomethylphenyl)-5-fluoro-2,4-pyrimidinediamine]: in test [2] (Homo sapiens, Ramos), the IC50 stood at 0.424 µM. Turning to `Cc1cc(Nc2nc(Nc3ccc(C(N)=O)cc3)ncc2F)ccc1OC(C)C#N` (stereo not shown) [Compound I-92, N2-(4-Aminocarbonylphenyl)-N4-[4-(1-cyanoethoxy)-3-methylphenyl]-5-fluoro-2,4-pyrimidinediamine], the IC50 in test [2] (Homo sapiens, Ramos) came out at 0.127 µM. Consider `Cc1nc(COc2ccc(Nc3nc(Nc4ccc(CC#N)cc4)ncc3F)cc2)no1` [Compound I-77, N2-(4-Cyanomethylphenyl)-5-fluoro-N4-[4-((5-methyl-1,2,4-oxadiazol-3-yl)methoxy)phenyl]-2,4-pyrimidinediamine], for which, in test [2] (Homo sapiens, Ramos), the IC50 amounted to 0.247 µM. With `Cc1noc(COc2ccc(N(C)c3nc(Nc4ccc(C(N)=O)cc4)ncc3F)cc2)n1` [Compound I-15, N2-(4-Aminocarbonylphenyl)-5-fluoro-N4-methyl-N4-[4-((3-methyl-1,2,4-oxadiazol-5-yl)methyleneoxy)phenyl]-2,4-pyrimidinediamine], the IC50 in test [2] stood at 0.693 µM. On to `Cc1noc(COc2ccc(Nc3nc(Nc4cccc(C#N)c4)ncc3F)cc2)n1` [Compound I-111, N2-(3-Cyanophenyl)-5-fluoro-N4-[4-((3-methyl-1,2,4-oxadiazol-5-yl)methoxy)phenyl]-2,4-pyrimidinediamine], for which the IC50 in test [2] (Homo sapiens, Ramos) came out at 1.05 µM. For `Cc1cc(Nc2nc(Nc3cccc(C(N)=O)c3)ncc2F)ccc1OC(C)C#N` (stereo not shown) [Compound I-93, N2-(3-Aminocarbonylphenyl)-N4-[4-(1-cyanoethoxy)-3-methylphenyl]-5-fluoro-2,4-pyrimidinediamine], in test [2] (Homo sapiens, Ramos), the IC50 is 0.331 µM.

On to `Cc1cc(Nc2nc(Nc3ccc(CC#N)cc3)ncc2F)cc(C)c1OC(C)C#N` (stereo not shown) [Compound I-97, N4-[4-(1-Cyanoethoxy)-3,5-dimethylphenyl]-N2-(4-cyanomethylphenyl)-5-fluoro-2,4-pyrimidinediamine], for which the IC50 in test [2] (Homo sapiens, Ramos) turned out to be 0.155 µM.

For the origin of these results see patent US7834024B2, “Compositions and methods for inhibition of the JAK pathway” (Rigel Pharmaceuticals, Inc., priority 2007, dated 2010).
